Test results as given in US6465509B2, “Pyrones as inhibitors of cyclooxygenase-2” (Merck Frosst Canada & Co., priority 2000, dated 2002).

Assays:
COX-2 [1] = biological target: T1, COX-2 (Homo sapiens, UniProt P35354); assay: Human whole blood assay, COX-2 (LPS-induced PGE2 production); type: cell-based; design: endogenous in cells; host or cells: fresh heparinized human whole blood from volunteers, incubated with LPS; details: LPS-induced PGE2, 24 hours at 37° C., read-out: COX-2 (IC50 μM) HWB
T1 sequence (P35354 18-604): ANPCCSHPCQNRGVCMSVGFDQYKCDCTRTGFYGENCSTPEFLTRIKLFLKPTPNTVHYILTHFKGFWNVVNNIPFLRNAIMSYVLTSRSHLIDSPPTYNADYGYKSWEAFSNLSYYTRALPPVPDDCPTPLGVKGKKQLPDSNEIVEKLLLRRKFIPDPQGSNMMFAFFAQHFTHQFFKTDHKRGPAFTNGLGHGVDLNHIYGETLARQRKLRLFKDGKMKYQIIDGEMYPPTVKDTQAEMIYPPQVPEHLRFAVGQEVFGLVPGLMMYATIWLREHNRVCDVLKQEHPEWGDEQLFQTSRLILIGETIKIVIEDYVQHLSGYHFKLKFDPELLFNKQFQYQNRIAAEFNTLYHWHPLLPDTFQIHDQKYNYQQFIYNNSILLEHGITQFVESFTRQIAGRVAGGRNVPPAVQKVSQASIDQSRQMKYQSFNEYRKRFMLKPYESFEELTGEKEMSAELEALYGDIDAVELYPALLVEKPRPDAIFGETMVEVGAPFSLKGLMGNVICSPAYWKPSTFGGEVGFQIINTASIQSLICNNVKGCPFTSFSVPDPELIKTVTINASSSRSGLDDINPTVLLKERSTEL
Description: Human whole blood provides a protein and cell-rich milieu appropriate for the study of biochemical efficacy of anti-inflammatory compounds such as selective COX-2 inhibitors. […] This is consistent with the observation that COX-2 inhibitors have no effect on PGE2 production in normal blood. These inhibitors are active only after incubation of human whole blood with LPS, which induces COX-2. This assay can be used to evaluate the inhibitory effect of selective COX-2 inhibitors on PGE2 production. As well, platelets in whole blood contain a large amount of the COX-1 enzyme. Immediately following blood clotting, platelets are activated through a thrombin-mediated mechanism. This reaction results in the production of thromboxane B2 (TxB2) via activation of COX-1. Thus, the effect of test compounds on TxB2 levels following blood clotting can be examined and used as an index for COX-1 activity. Therefore, the degree of selectivity by the test compound can be determined by measuring the levels of PGE2 after LPS induction (COX-2) and TxB2 following blood clotting (COX-1) in the same assay.
A. COX-2 (LPS-induced PGE2 production)
Fresh blood is collected in heparinized tubes by venipuncture from both male and female volunteers. The subjects have no apparent inflammatory conditions and have not taken any NSAIDs for at least 7 days prior to blood collection. Plasma is immediately obtained from a 2 mL blood aliquot to use as blank (basal levels of PGE2). The remaining blood is incubated with LPS (100 μg/ml final concentration, Sigma Chem, #L-2630 from E. coli; diluted in 0.1% BSA (Phosphate buffered saline) for 5 minutes at room temperature. Five hundred μL aliquots of blood are incubated with either 2 μL of vehicle (DMSO) or 2 μL of a test compound at final concentrations varying from 10 nM to 30 μM for 24 hours at 37° C. At the end of the incubation, the blood is centrifuged at 12,000×g for 5 minutes to obtain plasma. A 100 μL aliquot of plasma is mixed with 400 μL of methanol for protein precipitation. The supernatant is obtained and is assayed for PGE2 using a radioimmunoassay kit (Amersham, RPA#530) after conversion of PGE2 to its methyl oximate derivative according to the manufacturer's procedure.

COX-2 [2] = biological target: T1, COX-2; assay: Whole cell assay for COX-2 using CHO[hCOX-2] transfected cell line; type: cell-based; design: expressed in transfected cells; host or cells: CHO cells stably transfected with pCDNAIII (CHO[hCOX-2]); details: CHO[hCOX-2] cells, PGE2 synthesis, 10 μM AA
Source text: Whole cell assays for COX-2 and COX-1 using CHO transfected cell lines
Chinese hamster ovary (CHO) cell lines which have been stably transfected with an eukaryotic expression vector pCDNAIII containing either the human COX-1 or COX-2 cDNA's are used for the assay. These cell lines are referred to as CHO[hCOX-1] and CHO[hCOX-2], respectively. For cyclooxygenase assays, CHO[hCOX-1] cells from suspension cultures and CHO[hCOX-2] cells prepared by trypsinization of adherent cultures are harvested by centrifugation (300×g, 10 min) and washed once in HBSS containing 15 mM HEPES, pH 7.4, and resuspended in HBSS, 15 mM HEPES, pH 7.4, at a cell concentration of 1.5×10^6 cells/ml. Drugs to be tested are dissolved in DMSO to 66.7-fold the highest test drug concentration. Compounds are typically tested at 8 concentrations in duplicate using serial 3-fold serial dilutions in DMSO of the highest drug concentration. Cells (0.3×10^6 cells in 200 μl) are preincubated with 3 μl of the test drug or DMSO vehicle for 15 min at 37° C. Working solutions of peroxide-free AA (5.5 μM and 110 μM AA for the CHO[hCOX-1] and CHO[COX-2] assays, respectively) are prepared by a 10-fold dilution of a concentrated AA solution in ethanol into HBSS containing 15 mM HEPES, pH 7.4. Cells are then challenged in the presence or absence of drug with the AA/HBSS solution to yield a final concentration of 0.5 μM AA in the CHO[hCOX-1] assay and a final concentration of 10 μM AA in the CHO[hCOX-2] assay. The reaction is terminated by the addition of 10 μl 1N HCl followed by neutralization with 20 μl of 0.5N NaOH. The samples are centrifuged at 300×g at 4° C. for 10 min, and an aliquot of the clarified supernatant is appropriately diluted for the determination of PGE2 levels using an enzyme-linked immunoassay for PGE2 (Correlate PGE2 enzyme immunoassay kit, Assay Designs, Inc.). Cyclooxygenase activity in the absence of test compounds is determined as the difference in PGE2 levels of cells challenged with arachidonic acid versus the PGE2 levels in cells mock-challenged with ethanol vehicle. Inhibition of PGE2 synthesis by test compounds is calculated as a percentage of the activity in the presence of drug versus the activity in the positive control samples.
Compounds of the present invention are inhibitors of cyclooxygenase-2 and are thereby useful in the treatment of cyclooxygenase-2 mediated diseases as enumerated above. The activities of the compounds against cyclooxygenase may be seen in the representative results shown below. In the assay, inhibition is determined by measuring the amount of prostaglandin E2 (PGE2) synthesized in the presence of arachidonic acid, cyclooxygenase-1 or cyclooxygenase-2 and a putative inhibitor. The IC50 values represent the concentration of putative inhibitor required to return PGE2 synthesis to 50% of that obtained as compared to the uninhibited control.

## CS(=O)(=O)c1ccc(-c2ccoc(=O)c2-c2ccccc2)cc1 [Example 1, 4-(4-Methylsulfonyl)phenyl-3-phenyl-pyran-2-one]
COX-2 [1]
  IC50: 2.6 µM
COX-2 [2]
  IC50: 0.12 µM

## Cc1cc(-c2ccc(S(C)(=O)=O)cc2)c(-c2ccc(F)cc2)c(=O)o1 [Example 2, 3-(4-Fluorophenyl)-6-methyl-4-(4-methylsulfonyl)phenyl-pyran-2-one]
COX-2 [1]
  IC50: < 0.4 µM
COX-2 [2]
  IC50: 0.4 µM

## Cc1cc(-c2ccc(S(C)(=O)=O)cc2)c(-c2cccc(F)c2)c(=O)o1 [Example 3, 3-(3-Fluorophenyl)-6-methyl-4-(4-methylsulfonyl)phenyl-pyran-2-one]
COX-2 [1]
  IC50: < 0.4 µM
COX-2 [2]
  IC50: 0.6 µM

## Cc1cc(-c2ccc(S(C)(=O)=O)cc2)c(-c2ccccc2)c(=O)o1 [Example 4, 6-Methyl-4-(4-methylsulfonyl)phenyl-3-phenyl-pyran-2-one]
COX-2 [1]
  IC50: < 0.4 µM
COX-2 [2]
  IC50: 0.4 µM

## CS(=O)(=O)c1ccc(-c2cc(C(F)F)oc(=O)c2-c2ccccc2)cc1 [Example 5, 6-Difluoromethyl-4-(4-methylsulfonyl)phenyl-3-phenyl-pyran-2-one]
COX-2 [1]
  IC50: 1.8 µM
COX-2 [2]
  IC50: 0.2 µM

## CS(=O)(=O)c1ccc(-c2cc(CF)oc(=O)c2-c2ccccc2)cc1 [Example 6, 6-Fluoromethyl-4-(4-methylsulfonyl)phenyl-3-phenyl-pyran-2-one]
COX-2 [1]
  IC50: 3.1 µM
COX-2 [2]
  IC50: 1.1 µM

## Cc1cc(-c2ccc(S(C)(=O)=O)cc2)c(Sc2ccccc2)c(=O)o1 [Example 7, 6-Methyl-4-(4-(methylsulfonyl)phenyl)-3-phenylthio-pyran-2-one]
COX-2 [1]
  IC50: 0.5 µM
COX-2 [2]
  IC50: 0.14 µM

## Cc1cc(-c2ccc(S(C)(=O)=O)cc2)c(Oc2ccccc2)c(=O)o1 [Example 8, 6-Methyl-4-(4-(methylsulfonyl)phenyl)-3-phenoxy-pyran-2-one]
COX-2 [1]
  IC50: < 0.4 µM
COX-2 [2]
  IC50: 0.2 µM

## Cc1cc(-c2ccc(S(C)(=O)=O)cc2)c(-c2cccnc2)c(=O)o1 [Example 9]
COX-2 [1]
  IC50: 0.6 µM
COX-2 [2]
  IC50: 2.9 µM

## Cc1cc(-c2ccc(S(C)(=O)=O)cc2)c(SC(C)C)c(=O)o1 [Example 10, 3-Isopropylthio-6-methyl-4-(4-(methylsulfonyl)phenyl)-pyran-2-one]
COX-2 [1]
  IC50: 1.3 µM
COX-2 [2]
  IC50: 0.8 µM

## CS(=O)(=O)c1ccc(-c2cc(C(F)(F)F)oc(=O)c2Sc2ccccc2)cc1 [Example 11, 4-(4-(Methylsulfonyl)phenyl)-3-phenylthio-6-trifluoromethyl-pyran-2-one]
COX-2 [1]
  IC50: 0.3 to 1 µM
COX-2 [2]
  IC50: 0.01 µM

## CC(C)Sc1c(-c2ccc(S(C)(=O)=O)cc2)cc(C(F)(F)F)oc1=O [Example 12, 3-Isopropylthio-4-(4-(methylsulfonyl)phenyl)-6-trifluoromethyl-pyran-2-one]
COX-2 [1]
  IC50: 1 to 3 µM
COX-2 [2]
  IC50: 0.06 µM

## Cc1cc(-c2ccc(S(C)(=O)=O)cc2)c(CCC(C)(C)O)c(=O)o1 [Example 14, 3-(3-Hydroxy-3-methylbutyl)-6-methyl-4-(4-methylsulfonyl)phenyl-pyran-2-one]
COX-2 [1]
  IC50: 1.2 µM
COX-2 [2]
  IC50: 2.8 µM
